Holding throughout (assay type): cell-based
One assay concerns the target T1, AR protein (Homo sapiens, UniProt P10275).
T1 construct: AR-positive human prostate cancer cells VCaP (cell source: ATCC); host or cells: VCaP
T1 sequence (P10275 1-920): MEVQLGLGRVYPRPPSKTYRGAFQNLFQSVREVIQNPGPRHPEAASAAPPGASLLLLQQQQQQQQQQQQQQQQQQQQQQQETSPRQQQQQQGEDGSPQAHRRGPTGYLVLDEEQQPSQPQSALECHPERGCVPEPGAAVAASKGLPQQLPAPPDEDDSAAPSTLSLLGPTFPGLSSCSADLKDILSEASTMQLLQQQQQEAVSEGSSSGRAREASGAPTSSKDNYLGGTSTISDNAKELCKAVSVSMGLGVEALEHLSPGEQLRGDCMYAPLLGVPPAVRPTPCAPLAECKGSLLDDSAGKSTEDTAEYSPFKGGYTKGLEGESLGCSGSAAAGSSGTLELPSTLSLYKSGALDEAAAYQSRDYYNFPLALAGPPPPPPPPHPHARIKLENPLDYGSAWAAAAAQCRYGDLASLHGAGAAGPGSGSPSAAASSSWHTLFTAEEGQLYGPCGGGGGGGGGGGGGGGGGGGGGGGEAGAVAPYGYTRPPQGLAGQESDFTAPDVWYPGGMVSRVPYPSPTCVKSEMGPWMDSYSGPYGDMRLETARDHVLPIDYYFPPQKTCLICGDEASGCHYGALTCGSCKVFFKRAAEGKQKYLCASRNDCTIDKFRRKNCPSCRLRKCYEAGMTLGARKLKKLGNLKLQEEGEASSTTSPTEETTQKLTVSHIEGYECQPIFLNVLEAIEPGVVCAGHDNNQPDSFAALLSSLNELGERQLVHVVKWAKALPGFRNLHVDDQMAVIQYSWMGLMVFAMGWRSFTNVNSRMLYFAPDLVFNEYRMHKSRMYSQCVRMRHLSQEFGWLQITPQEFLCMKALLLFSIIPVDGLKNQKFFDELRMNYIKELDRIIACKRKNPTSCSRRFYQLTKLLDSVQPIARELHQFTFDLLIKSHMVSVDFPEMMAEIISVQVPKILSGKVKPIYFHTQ
The assay can be described thus: AR protein degradation in VCaP cells (Western blot). The settings on record: 8h. As to the method:
AR-positive human prostate cancer cells VCaP (cell source: ATCC) were cultured in DMEM (GiBco catalog number 11995-065) containing 10% FBS (Hyclone catalog number SH30406.05), and the cells were inoculated in a six-well microplate (Thermo catalog number 140675) at a density of 3 × 10^5 cells/well. After being cultured overnight in a carbon dioxide incubator (ESCO), the prepared compound of the present invention and the positive control sample ARV-766 (energy chemical) solution of different concentrations were added at a volume of 1 µL/well to make the final concentrations of the compound and the positive control sample reach 5nM and 0.5nM, respectively. At the same time, the corresponding solvent control was set and cultured for 8h. After 8h of culture, the culture medium was removed, and the cells were washed with PBS. RIPA lysis buffer containing 1% Protease Inhibitor Cocktail was added. After lysis and centrifugation, a total protein extract was obtained, and the protein concentration in the extract was detected by BCA method. Protein electrophoresis was performed using SDS-PAGE, and then the protein was transferred to a PVDF (Millipore Sigma catalog number PSRP010R5) membrane at a constant voltage of 100V for 60min. The PVDF membrane was placed in a 5% milk powder 1×TBST solution and blocked at room temperature for 1h. The primary antibody solution (Anti-Androgen receptor, Cell Signaling Technology catalog number: 5153S; 1:2000 dilution) was prepared and incubated at 4°C overnight. The primary antibody solution was discarded and the PVDF membrane was washed with 1×TBST for 5 minutes each time, three times. The secondary antibody solution (Thermo catalog number SA5-35571; 1:7500 dilution) was prepared and incubated at room temperature for 1 hour. The secondary antibody solution was discarded and the PVDF membrane was washed with 1×TBST for 5 minutes each time, three times. A dual-color infrared laser imaging system (Licor catalog number Odyssey CLX) was used for Western membrane imaging. The Image Studio software was used to analyze the grayscale of the bands. GAPDH protein bands were also detected for each sample as an internal reference. The AR protein degradation rate of the compound and the positive control sample was calculated based on the grayscale of the protein bands. Among them, "A" means degradation rate ≥ 50%, "B" means 50%> degradation rate ≥ 20%, "C" means 20% degradation rate ≥ 10%, and "D" means degradation rate less than 10%.
Background: In western blotting, separated proteins are transferred to a membrane and probed.

A further assay relates to TNFα. Kind of assay: LPS-induced TNFα secretion by PBMC (HTRF detection). As to conditions: Homo sapiens, hPBMC, 20 hours compound then LPS 200 ng/mL for 5 hours, read-out: IC50 (inhibition of LPS-induced TNFα). The protocol: (§1) After thawing, cryopreserved hPBMC (FPB003F-C, Shanghai OriBiotech) cells were resuspended in RPMI 1640 medium (30-2001,ATCC) containing 10% inactivated FBS (10099141C, Gibco) and cultured overnight at 37°C and 5% CO2. The next day, hPBMC cells were seeded in a 96-well cell culture plate at a density of 2 × 10^5 cells/well/100 µL (2 × 10^6 cells/mL), and 100 µL of compound in dimethyl sulfoxide solution (final concentration 0.0064-2500 nM) was added. […] The cell plate was placed in a 37°C, 5% CO2 incubator for 5 hours, and then centrifuged at 1000 rpm for 15 minutes. 100 µL of cell supernatant was collected from each well for cytokine concentration testing, which was tested immediately or frozen at -80°C for testing.
The TNFα concentration in the supernatant of LPS-induced THP-1 cells was determined using the TNF […] detection kit (62[…], PerkinElmer).
TNFα standard solutions of varying concentrations were prepared according to the product instructions, ranging from 0 to 2500 pg/mL. Equal volumes of Eu Cryptate antibody (1×) and d2 antibody (1×) were used to prepare the antibody mixture. 16 µL of standard solution or sample supernatant and 4 µL of the antibody mixture were added to each well of a 384-well white plate. The mixture was centrifuged at 800 rpm for 1 minute and incubated at room temperature for 2 hours. The absorbance at 620 nm and […] was read using a microplate reader (SPARK m1000pro, TECAN). A standard curve was plotted using the signal values of each TNFα standard solution. The TNFα concentration in each sample was determined based on the corresponding concentration of the signal value on the standard curve. The inhibitory rate of the compound on LPS-induced TNFα expression in THP-1 cell supernatants at different drug concentrations was calculated based on the TNFα concentration. The inhibition rate data were plotted in GraphPad Prism 8.0 software, and the IC50 value was calculated. Inhibition Rate = [1−(OD(Sample)−OD(Blank))/(OD(Control)−OD(Blank))] × 100% [formula] Table 9: Degradation effect of example compounds on IRAK4 in PBMC cells

The subject of the next assay is IL-6. Kind of assay: LPS-induced IL-6 secretion by hPBMC (ELISA). The settings on record: Homo sapiens, 20 h compound then LPS 200 ng/mL for 5 h; for inhibition at […]: 2500nM, read-out: Inhibition Rate of IL-6 (2500nM). As to the method: as §1, with “OriBiotech.)” for “OriBiotech)”, “(30-2001, ATCC)” for “(30-2001,ATCC)”, “h,” for “hours,”, “min.” for “minutes.”, “awhich” for “which”
The IL-6 concentration in the supernatant of hPBMC cells induced by LPS was determined using a Human IL-6 ELISA kit (D6050, RD).
IL-6 standard solutions of varying concentrations were prepared according to the product instructions, ranging from 0 to 300 pg/mL. 100 µL of Assay Diluent RD1W and 100 µL of standard solution or sample supernatant were added to a pre-coated ELISA plate and incubated at room temperature for 2 hours. After washing the plate four times with 1× wash buffer, then 200 µL of Human IL-6 Conjugate was added and incubated at room temperature for 2 hours. After washing the plate four times with 1× wash buffer, then 200 µL of Substrate Solution was added and incubated at room temperature for 20 minutes. Finally, 50 µL of Stop Solution was added to terminate the reaction. The absorbance at 450 nm and 570 nm were read using a microplate reader (SPARK m1000pro, TECAN). The standard curve was plottd by the signal value of each concentration of IL-6 standard solution, and the IL-6 concentration in each sample was determined according to the corresponding concentration of the signal value of each well on the standard curve. The inhibition rate of the compound on LPS-induced IL-6 in the hPBMC cell supernatant at different drug concentrations was calculated according to the IL-6 concentration. The inhibition rate data were plotted in GraphPad Prism 8.0 software to calculate the IC50 value. Inhibition Rate = [1−(OD(sample)−OD(blank))/(OD(control)−OD(blank))] × 100% [formula] Table 10: Inhibitory effect of Example compounds on LPS-induced IL-6 secretion by hPBMC

Turning to `C[C@H]1CC2(CCN(c3ccc(C(=O)N4CCC(F)(CN5CCC6(CC5)COc5cc(N7CCC(=O)NC7=O)ccc56)CC4)cc3)CC2)CN1c1ccc(C#N)c(Cl)c1` [A-P-265, (S)-2-chloro-4-(8-(4-(4-((6-(2,4-dioxotetrahydropyrimidin-1(2H)-yl)-2H-spiro[benzofuran-3,4'-piperidine]-1'-yl)methyl)-4-fluoropiperidine-1-carbonyl)phenyl)-3-methyl-2,8-diazaspiro[4.5]dec-2-yl)benzonitrile], the “Degradation rate of AR protein in VCAP cells” value is “B (50%> degradation rate ≥ 20%)” on AR protein (0.5 nM) and “A (degradation rate ≥ 50%)” at AR protein (5 nM).
Turning to `O=C1CCN(c2ccc3c(c2)CC2(CO3)CN(CC3CCN(C(=O)C4CCC(n5cc(NC(=O)c6cnn7ccc(N8CC9CC8CO9)nc67)c(C(F)F)n5)CC4)CC3)C2)C(=O)N1` (centres unmarked) [IR-P-6], the IC50 (in general, the midpoint of a concentration-inhibition curve) in the assay with TNFα is 95.6 nM. Moreover, the inhibition (as a rule, the percentage by which the read-out fell short of the control) at […] in the assay with IL-6 was determined as 65%.
On to `O=C1CCN(c2ccc3c(c2)CC2(CCN(CC4CCN(C(=O)C5CCC(n6cc(NC(=O)c7cnn8ccc(N9CC%10CC9CO%10)nc78)c(C(F)F)n6)CC5)CC4)CC2)O3)C(=O)N1` (centres unmarked) [IR-P-7], for which the inhibition at […] in the assay on IL-6 was found to be 46%.
On to `Cn1c(=O)n(C2CCC(=O)NC2=O)c2cccc(C#CCOC3CCN(C[C@H]4CC[C@H](n5cc(NC(=O)c6cnn7ccc(N8C[C@H]9C[C@@H]8CO9)nc67)c(C(F)F)n5)CC4)CC3)c21` (some centres unmarked) [KT-474, reference compound], for which, in the assay with TNFα, the half-inhibitory concentration (IC50) is 52.3 nM. In addition, the inhibition at 0.02 µM in the assay with IL-6 (20nM, read-out: Inhibition Rate of IL-6 (20nM)) is 63%. Also, the inhibition at […] with IL-6 was determined as 85%.

The values are drawn from EP4806892A1, “CEREBLON E3 UBIQUITIN LIGASE INHIBITOR” (GAN & LEE PHARMACEUTICALS CO., LTD., priority 2023, dated 2025).
